In US20130040935A1, “CYCLIC KETO-ENOLS FOR THERAPY” (BAYER INTELLECTUAL PROPERTY GMBH, priority 2010, published 2013):
Read-outs that look alike come from different tables or passages of the source.

Tests used:
[1] = target: ACCase enzyme extracted from oat seedlings (Avena sativa, UniProt A0ACD5YD93); assay: Non-human ACCase assay (malachite green phosphate detection); format: biochemical; details: comparative compounds, Table V.2; read-out: ACC-non human IC50
Procedure: The assay was carried out at room temperature in a transparent 384-well microtitre plate. It determined the inorganic phosphate released from the ATP in the ACCase reaction.
The test mixture contained 50 mM Tris-HCl pH 8.3, 50 mM KCl, 2.5 mM MgCl2, 0.5 mM ATP, 0.8 mM dithiothreitol (DTT), 30 mM NaHCO3, 0.1 mM acetyl-CoA, 0.04% bovine serum albumin and 0.4 μg partially purified ACCase enzyme in a final volume of 40 μl. After 45 minutes of incubation, the reaction was stopped with 150 μl of malachite green solution, and the absorption at […] was read after 30 minutes.
The malachite green (MG) solution was prepared by mixing 3 parts of 0.6 mM MG-HCl solution in distilled water with 1 part of 8.5 mM ammonium molybdate in 4 M HCl. The solution was allowed to stand for 30 minutes. After filtration through a 0.45 μm polytetrafluoroethylene (PTFE) filter, 0.1 part of Triton X-100 (1.5%) in distilled water was added.
ACCase enzyme was extracted from oat seedlings 9 days after sowing and partially purified by precipitation with 0-40% ammonium sulphate followed by ion exchange chromatography on Q-Sepharose.

[2] = system: KM12; assay: Cell proliferation assay (CellTiter-Glo, 96 h), KM12; format: cell-based; details: Homo sapiens, 96-hour incubation
Procedure: (§1) In accordance with the invention, the substances were tested in cell-based assays for the ability of the substances of inhibiting tumour cell proliferation after a 96-hour incubation with the substance. Cell viability was tested using the CellTiter-Glo® luminescent cell viability assay (Promega). The cells were sown at a density of 2000-5000 cells/well (depending on the cell line) in 100 μl growth medium on 96-well microtitre plates. For each cell line examined, cells were sown on a separate plate to determine the luminescence at t=0 hours and t=96 hours. After overnight incubation at 37° C., the luminescence values for the t=0 samples were determined. The dose plates for the t=96 hours points in time were treated with substances diluted with growth medium. The cells were then incubated at 37° C. for 96 hours, and the luminescence values for the t=96 hours sample were then determined. For data analysis, the t=0 values were subtracted from the t=96 hour values for treated and untreated samples. The differences in luminescence in percent between substance-treated samples and control values were used to determine the growth inhibition in percent.
(§2) The substances were tested in the following cell lines which represent the stated indications in an exemplary manner: […]

[3] = system: PC3; assay: Cell proliferation assay (CellTiter-Glo, 96 h), PC3; format: cell-based; details: Homo sapiens, PC-3; 96-hour incubation
Procedure: as §1, §2

[4] = system: Du145; assay: Cell proliferation assay (CellTiter-Glo, 96 h), Du145; format: cell-based; details: Homo sapiens, DU-145; 96-hour incubation
Procedure: as §1, §2

[5] = system: PLC/PRF5; assay: Cell proliferation assay (CellTiter-Glo, 96 h), PLC/PRF5; format: cell-based; details: Homo sapiens, PLC-PRF-5; 96-hour incubation
Procedure: as §1, §2

[6] = system: 786 O; assay: Cell proliferation assay (CellTiter-Glo, 96 h), 786 O; format: cell-based; details: Homo sapiens, 786-0; 96-hour incubation
Procedure: as §1, §2

[7] = system: malonyl-CoA in a tumour (human MCF-7 breast cancer cells); assay: Mode-of-action experiment: intratumour malonyl-CoA in MCF-7 tumours after oral administration; format: in vivo, female nude mice (NMRI-nude (nu/nu)); details: Mus musculus, MCF7, po; after 7 h, 10 mg/kg, vs Vehicle
Procedure: Mode-of-Action Experiment
Prior to the determination of the activity in the MCF-7 model, some of the test substances were examined in a “mode of action” experiment. The principle of this experiment is that short-term application of a test substance capable of inhibiting ACC1 and/or ACC2 in a living organism after oral administration reduces malonyl-CoA in a tumour. To this end, in the experiment 2 million human MCF-7 breast cancer cells were injected subcutaneously into female nude mice (NMRI-nude (nu/nu) mice, Taconic M&B A/S, 1 day beforehand administration of a pellet for the release of oestrogen over a period of at least 60 days). Once the tumour extended to an area of about 60-70 mm^2, the test substance was administered orally over a period of 1-3 days, and at defined points in time the intratumour content of malonyl-CoA was then determined and compared to the vehicle control. The method is described in Anal Chem 2008 Aug. 1; 80(15):5736-42. Epub 2008 Jul. 9.).

[8] = system: NCI-H2135; assay: Cell proliferation assay (CellTiter-Glo, 96 h), NCI-H2135; format: cell-based; details: 96-hour incubation; read-out: NCLH 2135 IC50
Procedure: as §1, §2

[9] = system: DLD1; assay: Cell proliferation assay (CellTiter-Glo, 96 h), DLD1; format: cell-based; details: Homo sapiens, DLD-1; 96-hour incubation
Procedure: as §1, §2

[10] = system: MDA-MB-435; assay: Cell proliferation assay (CellTiter-Glo, 96 h), MDA-MB-435; format: cell-based; details: Homo sapiens, 96-hour incubation
Procedure: as §1, §2

[11] = target: T1, human ACC1 (acetyl-coenzyme A carboxylase alpha transcript variant 1) (Homo sapiens, UniProt Q13085); assay: Human ACC1 enzyme assay, Assay B1 (ADP-Glo); format: biochemical
T1 construct: FLAG (C); made in house; host or cells: baculovirus-infected insect cells (Hi5)

[12] = system: ECC1; assay: Cell proliferation assay (CellTiter-Glo, 96 h), ECC1; format: cell-based; details: Homo sapiens, ECC-1; 96-hour incubation
Procedure: as §1, §2

[13] = target: human ACC2 (acetyl-coenzyme A carboxylase 2) (Homo sapiens, UniProt O00763); assay: Human ACC2 enzyme assay, Assay B2 (ADP-Glo);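 also: human ACC2 activity read as ADP product, detected by luciferase glow luminescence after residual ATP removal, enzyme near 2 ng/µl in linear range, detection steps at 22 °C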
Procedure: The hACC2-inhibitory action of the substances of the present invention was measured in the hACC2 assay described in the paragraphs below.
Essentially, the enzyme activity is measured by quantifying the adenosine diphosphate (ADP) formed as a byproduct of the enzyme reactions using the ADP-Glo™ detection system from Promega. In this test, initially the adenosine triphosphate (ATP) not consumed in the enzyme reaction is converted quantitatively with an adenylate cyclase (“ADP-GLO reagent”) into cAMP, the adenylate cyclase is then stopped and (“kinase detection reagent”) the ADP formed is subsequently converted into ATP, which is converted in a luciferase-based reaction into a glow luminescence signal.
The concentration of the hACC2 was adapted to the respective activity of the enzyme and adjusted such that the assay operated in the linear range. Typical concentrations were in the range of 2 ng/μl. […] The amount of light emitted was taken as a measure for the amount of ADP formed and thus for the enzyme activity of the hACC2.

[14] = target: acetyl-CoA carboxylase 2 (ACC2) (Homo sapiens, UniProt O00763); assay: Human ACC2 enzyme assay, Assay A2 (HTRF ADP immunoassay);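 also: ADP generated by ACC2 quantified via competitive time-resolved FRET between europium cryptate anti-ADP antibody and d2-tagged ADP, enzyme kept in linear range near 0.6 ng/µl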
[15] = target: recombinant human ACC1 (Homo sapiens, UniProt Q13085); assay: Human ACC1 enzyme assay, Assay A1 (HTRF ADP immunoassay);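 also: ADP generated by the enzyme quantified via competitive time-resolved FRET, read as europium cryptate to d2 energy transfer after 1 h at 22 °C with labelled ADP tracer and anti-ADP antibody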
Procedure: The inhibitory activity of the substances of this invention with regard to acetyl-CoA carboxylase 1 (ACC1) was measured using the ACC1 assay described in the paragraphs below. The basic principle of the assay is the measurement of adenosine diphosphate (ADP), which is formed as a by-product, by means of an HTRF®-based competitive immunoassay (HTRF=Homogeneous Time Resolved Fluorescence).
Typical concentrations were in the range of 2.5 ng/μl.
The amount of complex between d2-labelled ADP and europium cryptate-labelled anti-ADP antibody was then determined by measuring the resonance energy transfer from the europium cryptate to d2.

[16] = system: MCF7; assay: Cell proliferation assay (CellTiter-Glo, 96 h), MCF7; format: cell-based; details: Homo sapiens, MCF7; Table 7; 96-hour incubation
Outline: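 Cells seeded at 2000-5000 cells/well, incubated overnight at 37° C., then exposed to compound in growth medium for 96 hours at 37° C. Viability read by CellTiter-Glo luminescence; t=0 values subtracted from t=96 h values, and percent growth inhibition derived relative to untreated controls.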

[17] = system: HEC1A; assay: Cell proliferation assay (CellTiter-Glo, 96 h), HEC1A; format: cell-based; details: Homo sapiens, HEC-1-A; 96-hour incubation
Procedure: as §1, §2

[18] = system: MDA-MB-436; assay: Cell proliferation assay (CellTiter-Glo, 96 h), MDA-MB-436; format: cell-based; details: Homo sapiens, MDA-MB-436; 96-hour incubation
Procedure: as §1, §2

[19] = system: MDA-MB-468; assay: Cell proliferation assay (CellTiter-Glo, 96 h), MDA-MB-468; format: cell-based; details: Homo sapiens, MDA-MB-468; 96-hour incubation
Procedure: as §1, §2

[20] = system: A431; assay: Cell proliferation assay (CellTiter-Glo, 96 h), A431; format: cell-based; details: Homo sapiens, A-431; 96-hour incubation
Procedure: as §1, §2

[21] = system: HCC-1937; assay: Cell proliferation assay (CellTiter-Glo, 96 h), HCC-1937; format: cell-based; details: Homo sapiens, HCC1937; 96-hour incubation
Procedure: as §1, §2

[22] = system: Miapaca; assay: Cell proliferation assay (CellTiter-Glo, 96 h), Miapaca; format: cell-based; details: Homo sapiens, MIA PaCa-2; 96-hour incubation
Procedure: as §1, §2

[23] = In-vitro dissolution of the pharmaceutical formulation (USP apparatus 2, paddle method); format: physicochemical; details: pH 1 and pH 6.8 (reason for adding SDS)
Procedure: c) In-Vitro Dissolution of the Pharmaceutical Formulation […] The release test was in each case carried out in 900 ml of various media at 37° C. and with a stirrer speed of 75 rotations per minute (FIG. 2). Each determination was carried out in three replications. The content was determined by HPLC.

[24] = Assay B1, read-out: ACC 1 (=B1) IC50

IC50 [16] [nM]	IC50 [11, 24] [nM]	Compound	IC50 [1] [nM]	IC50 [2] [nM]	IC50 [3] [nM]	IC50 [4] [nM]	IC50 [12] [nM]	IC50 [13] [nM]	further results
		COC1CCC2(CC1)NC(=O)C(c1c(C)cc(-c3ccc(Cl)cc3)cc1C)=C2O (stereo not drawn) [V-2]	40						
		Cc1ccc(-c2ccc(Cl)cc2)cc1C1=C(O)C2(CCCCC2)NC1=O [1-77, 3-(4′-chloro-4-methylbiphenyl-3-yl)-4-hydroxy-1-azaspiro[4.5]dec-3-en-2-one]		80	31	51	257	2590	IC50 [5]: 3890 nM; IC50 [6]: 404 nM; inhibition in vivo at 10 mg/kg [7]: 96%; IC50 [8]: 33 nM; IC50 [9]: 875 nM; IC50 [10]: 140 nM; IC50 [11]: 278 nM
33	157	Cc1ccc(-c2ccc(F)c(F)c2)cc1C1=C(O)[C@]2(CC[C@H](C(F)(F)F)CC2)NC1=O [1-128, (5s,8s)-3-(3′,4′-Difluoro-4-methylbiphenyl-3-yl)-4-hydroxy-8-(trifluoromethyl)-1-azaspiro[4.5]dec-3-en-2-one]		74	20	29	137	4410	IC50 [14]: 2740 nM; IC50 [15]: 195 nM; IC50 [17]: 328 nM
30	202	COCC1CCC2(CC1)NC(=O)C(c1cc(-c3ccc(Cl)cc3)ccc1C)=C2O (stereo not drawn) [1-56, 3-(4′-chloro-4-methylbiphenyl-3-yl)-4-hydroxy-8-(methoxymethyl)-1-azaspiro[4.5]dec-3-en-2-one]						672	IC50 [18]: 84 nM; IC50 [19]: 138 nM; IC50 [20]: 214 nM; IC50 [21]: 171 nM; inhibition in vivo at 10 mg/kg [7]: 84%; IC50 [22]: 316 nM
		CCc1cc(-c2ccccc2)cc(Cl)c1C1C(=O)N2CCOCCN2C1=O [V-1]	0.5						
		COC1CCC2(CC1)NC(=O)C(c1c(C)cc(OC(F)(F)F)cc1Cl)=C2O (stereo not drawn) [V-3]	2						

Compound	IC50 [16] [nM]	IC50 [11, 24] [nM]	IC50 [1] [nM]	IC50 [2] [nM]	IC50 [3] [nM]	IC50 [4] [nM]	IC50 [12] [nM]	IC50 [13] [nM]	further results
CO[C@H]1CC[C@]2(CC1)NC(=O)C(c1cc(-c3ccc(Cl)c(F)c3)ccc1C)=C2O [1-118, (5s,8s)-3-(4′-Chloro-3′-fluoro-4-methylbiphenyl-3-yl)-4-hydroxy-8-methoxy-1-azaspiro[4.5]dec-3-en-2-one]	37	102		275	25	39	221	1380	solubility in dissolution media [23]: insufficient solubility; IC50 [14]: 690 nM; IC50 [15]: 129 nM; IC50 [17]: 1760 nM
